What follows are compounds tested against BTK protein in human whole blood (Homo sapiens (Human), UniProt Q06187) (assay: Btk protein in human whole blood MSD ELISA based assay (BTK degradation)). Settings: 6 hours, maximum BTK degradation compared to DMSO only treated samples, read-out: hWB BTK dMax (%).
Type: cell-based
Protocol: Btk protein degradation was tested using an Meso Scale Discovery-ELISA system (MSD-ELISA): (1) Test compounds were added to human whole blood; (2) human whole blood cells treated with test compounds were lysed; (3) lysed cells were treated with capture antibody, an antibody to Btk; (4) lysed cells were treated with […] to Btk; and (5) lysed cells were treated with anti-mouse antibody (tagged).
Specifically, about 80 μl of fresh human whole blood from healthy donors was transferred into each well of a 96-well V-bottom plate (Costar, Cat No. 3894). Using a TECAN™ D300e Digital Dispenser (Tecan)), 1:4 serially diluted compounds [(8 pt assay) in DMSO solution (final 0.2%) starting at 3 μM top concentration], were added in duplicate. Thereafter, plates were placed in a 37° C. incubator and incubated for 6 hours.
At the end of incubation, 80 μl of 2×CST lysis buffer (Cell Signaling Technology, Cat No. 9803), prepared from a 10× stock solution, was added per well to lyse the blood. Plates were then sealed with a plate sealer and the samples were frozen overnight at −80° C.
Total amount of BTK protein remaining in the blood samples after compound treatment was measured using MSD-ELISA. After thawing the frozen plates, blood lysates were mixed thoroughly and transferred to small spot high-bind MSD plates (Meso Scale Discovery, Cat No. L45XB-3) and coated with capturing antibody, rabbit anti-human BTK (D3H5) (Cell Signaling Technology, Cat No. 8547CF). Thereafter, primary detection antibody, mouse anti-human BTK monoclonal antibody, (BD Biosciences, Cat No. 611117) and secondary detection antibody, anti-mouse SULFO-TAG (Meso Scale Discovery, Cat No. R32AC-1) were added. The assay plates were read on an MSD S600 plate reader by the addition of 2×MSD read buffer (Meso Scale Discovery, R92TC-1). All reagent transfers, including blood lysis, was conducted using a Biomed i7 liquid handler. From the dose response curves, DC50 values were calculated by averaging data from duplicate experiments. and Curve fitting was done by non-linear regression using GraphPad Prism. The DC50 values are reported in Table 2 in the hWB BTK DC50 (nM) column The Dmax values represent the maximum amount of BTK degradation observed upon compound treatment compared to DMSO only treated samples. The dMax (%) values are reported in Table 2 in the hWB BTK dMax (%) column.

Chain of BTK protein in human whole blood (Q06187 whole entry): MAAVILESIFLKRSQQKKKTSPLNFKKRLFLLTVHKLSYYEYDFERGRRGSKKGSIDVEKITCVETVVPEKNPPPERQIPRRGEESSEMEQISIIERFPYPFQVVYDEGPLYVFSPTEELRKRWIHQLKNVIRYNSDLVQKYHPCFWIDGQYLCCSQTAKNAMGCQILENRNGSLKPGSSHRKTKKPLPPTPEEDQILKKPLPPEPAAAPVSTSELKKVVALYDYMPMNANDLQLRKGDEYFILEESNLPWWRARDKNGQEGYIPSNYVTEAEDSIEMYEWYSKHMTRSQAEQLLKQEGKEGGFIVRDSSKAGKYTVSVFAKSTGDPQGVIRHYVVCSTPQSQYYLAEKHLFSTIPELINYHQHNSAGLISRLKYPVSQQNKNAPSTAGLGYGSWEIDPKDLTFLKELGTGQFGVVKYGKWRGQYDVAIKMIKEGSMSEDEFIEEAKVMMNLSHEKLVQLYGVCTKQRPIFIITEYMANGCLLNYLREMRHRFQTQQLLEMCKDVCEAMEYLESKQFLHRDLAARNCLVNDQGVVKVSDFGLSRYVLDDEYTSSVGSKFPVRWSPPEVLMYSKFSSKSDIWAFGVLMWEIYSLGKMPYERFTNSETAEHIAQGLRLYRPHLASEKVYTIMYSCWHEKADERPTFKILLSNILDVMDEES

Dmax [%] | Structure (SMILES)
99.6 | C[C@@H](NC(=O)c1nc(C(C)(C)C)no1)c1ccc(-c2cc(Nc3ccc(N4CCN(CCc5ccc(N6CCC(=O)NC6=O)cc5)C[C@@H]4C)cn3)ncn2)cc1F [Example 17, 3-tert-butyl-N-[(1R)-1-{4-[6-({5-[(2S)-4-{2-[4-(2,4-dioxo-1,3-diazinan-1-yl)phenyl]ethyl}-2-methylpiperazin-1-yl]pyridin-2-yl}amino)pyrimidin-4-yl]-2-fluorophenyl}ethyl]-1,2,4-oxadiazole-5-carboxamide]
100 | C[C@@H](NC(=O)c1nc(C(C)(C)C)no1)c1ccc(-c2cc(Nc3ccc(N4CCN(CCc5ccc(N6CCC(=O)NC6=O)cc5)C[C@@H]4C)cn3)ncn2)cc1C(F)(F)F [Example 16, 3-tert-butyl-N-[(1R)-1-{4-[6-({5-[(2S)-4-{2-[4-(2,4-dioxo-1,3-diazinan-1-yl)phenyl]ethyl}-2-methylpiperazin-1-yl]pyridin-2-yl}amino)pyrimidin-4-yl]-2-(trifluoromethyl)phenyl}ethyl]-1,2,4-oxadiazole-5-carboxamide]
99.9 | COC[C@H]1CN(CCc2ccc(N3CCC(=O)NC3=O)cc2)CCN1c1ccc(Nc2cc(-c3ccc([C@@H](C)NC(=O)c4nc(C(C)(C)C)no4)c(C)c3)ncn2)nc1 [Example 15, 3-tert-butyl-N-[(1R)-1-{4-[6-({5-[(2R)-4-{2-[4-(2,4-dioxo-1,3-diazinan-1-yl)phenyl]ethyl}-2-(methoxymethyl)piperazin-1-yl]pyridin-2-yl}amino)pyrimidin-4-yl]-2-methylphenyl}ethyl]-1,2,4-oxadiazole-5-carboxamide]

Reference: US12172992B2, “Pyrimidines for degrading Bruton's tyrosine kinase” (AbbVie Inc., priority 2022, dated 2024)
